# Test results reported in patent US20040191297A1, “Carotenoid formulation” (priority 1997, published 2004).
# Legend:
# [1] = Carotenoid content of Lycopene Suspension-supplemented diets after 7 months storage; format: physicochemical; conditions: for Carotenoid content of diet: stored at −20 °C for 7 months
# Method: When the Lycopene Suspension (Henkel Corporation, La Grange, Ill.) was extracted by organic extraction methods, the major carotenoid was lycopene, but a number of other carotenoids were known to be present in tomatoes, α- and β-Carotene, phytofluene and phytoene were also present (FIGS. 6 & 7). The quantitative profile of carotenoids in the Lycopene Suspension was carried out using an HPLC system as described above, equipped with a photodiode array detector. The six major components can be seen in Table 7.
# (Table 10). Note that all the major carotenoids plus the lycopene metabolite present in the Lycopene Suspension are present in the diets in the same relative proportions. However, the net loss of lycopene over 7 months was 66%, 38%, 40%, 44% and 60%, in treatment groups 1-5, respectively; in contrast, β-carotene concentrations declined by only 10% of original values over the same time period.
# [2] = Carotenoid content of livers of rats fed supplemented diets
# Method: Breast, liver and prostate tissue contain lipids which interfere with the assay. Consequently, a saponification step was required prior to organic extraction. Tissue was homogenized in 20 ml methanol to which echinenone was added as internal standard. For breast tissue, which comprise of 85% adipocytes, 8.0 ml 50% NaOH and 4.0 ml 25% sodium ascorbate was added and the mixture was homogenized. For prostate and liver tissue, which contain less lipid, 4.0 ml and 50% NaOH. and 2.0 ml sodium ascorbate were added and the mixture was
# homogenized. Saponification was carried out in 50 ml tubes saturated with N2 gas overnight in a temperature controlled shaker bath at 30° C. Following saponification, 10 ml hexane was add d to each tube and vortexed for 1 minute. The mixture was then centrifuged at 2000 rpm for 10 min at 4° C. and the hexane layer was decanted and saved. This hexane extraction procedure was repeated 5-7 times. The pooled hexane extract was then dried under N2 gas at 60° C., dissolved in injection solvent and analyzed by HPLC. Lung and colon tissue were processed in an identical manner with the exception that the saponification step was omitted.
# [3] = female rats, Diet 1, 2.5 mM/kg diet
# [4] = female rats, Diet 2, 1.0 mM/kg diet
# [5] = female rats, Diet 3, 0.5 mM/kg diet
# [6] = female rats, Diet 4, 0.25 mM/kg diet
# [7] = female rats, Diet 5, 0.10 mM/kg diet
# [8] = male rats, Diet 1, 2.5 mM/kg diet
# [9] = male rats, Diet 2, 1.0 mM/kg diet
# [10] = male rats, Diet 3, 0.5 mM/kg diet
# [11] = male rats, Diet 5, 0.10 mM/kg diet
SMILES,"Carotenoid content of diet ([1]; Diet 1, 2.5 mM/kg diet)","Carotenoid content of diet ([1]; Diet 2, 1.0 mM/kg diet)","Carotenoid content of diet ([1]; Diet 3, 0.5 mM/kg diet)","Carotenoid content of diet ([1]; Diet 4, 0.25 mM/kg diet)","Carotenoid content of diet ([1]; Diet 5, 0.10 mM/kg diet)","decline of concentration from original values ([1]; diets, 7 months storage)","Carotenoid content of liver [2, 3]","Carotenoid content of liver [2, 4]","Carotenoid content of liver [2, 5]","Carotenoid content of liver [2, 6]","Carotenoid content of liver [2, 7]","Carotenoid content of liver [2, 8]","Carotenoid content of liver [2, 9]","Carotenoid content of liver [2, 10]","Carotenoid content of liver ([2]; male rats, Diet 4, 0.25 mM/kg diet)","Carotenoid content of liver [2, 11]"
CC1=C(/C=C/C(C)=C/C=C/C(C)=C/C=C/C=C(C)/C=C/C=C(C)/C=C/C2=C(C)CCCC2(C)C)C(C)(C)CCC1 [β-carotene],284 μg/gm (ppm),138 μg/gm (ppm),69 μg/gm (ppm),37 μg/gm (ppm),8 μg/gm (ppm),10%,–,–,–,–,–,–,–,–,–,–
CC(C)=CCC/C(C)=C/CC/C(C)=C/C=C/C(C)=C/C=C/C=C(C)/C=C/C=C(\C)CC/C=C(\C)CCC=C(C)C [zeta-carotene],1 μg/gm (ppm),9 μg/gm (ppm),4 μg/gm (ppm),2 μg/gm (ppm),0 μg/gm (ppm),–,–,–,–,–,–,–,–,–,–,–
"CC(C)=CCC/C(C)=C/C=C/C(C)=C/C=C/C(C)=C/C=C/C=C(C)/C=C/C=C(C)/C=C/C1C(C(C)(C)O)CCC1(C)O (stereo not drawn) [2,6 cyclolycopene-1,5-diol]",2 μg/gm (ppm),1.4 μg/gm (ppm),0.76 μg/gm (ppm),0.46 μg/gm (ppm),0.14 μg/gm (ppm),–,9 μg/gm (ppm),5 μg/gm (ppm),7 μg/gm (ppm),4 μg/gm (ppm),6 μg/gm (ppm),4 μg/gm (ppm),.39 μg/gm (ppm),4 μg/gm (ppm),.28 μg/gm (ppm),.34 μg/gm (ppm)
CC(C)=CCC/C(C)=C/CC/C(C)=C/CC/C(C)=C/C=C/C=C(\C)CC/C=C(\C)CC/C=C(\C)CCC=C(C)C [Phytoene],70 μg/gm (ppm),23 μg/gm (ppm),0.32 μg/gm (ppm),5 μg/gm (ppm),1 μg/gm (ppm),–,66 μg/gm (ppm),35 μg/gm (ppm),40 μg/gm (ppm),46 μg/gm (ppm),38 μg/gm (ppm),23 μg/gm (ppm),4 μg/gm (ppm),21 μg/gm (ppm),–,10 μg/gm (ppm)
CC(C)=CCC/C(C)=C/CC/C(C)=C/C=C/C(C)=C/C=C/C=C(\C)CC/C=C(\C)CC/C=C(\C)CCC=C(C)C [Phytofluene],58 μg/gm (ppm),28 μg/gm (ppm),14 μg/gm (ppm),8 μg/gm (ppm),2 μg/gm (ppm),–,106 μg/gm (ppm),48 μg/gm (ppm),50 μg/gm (ppm),46 μg/gm (ppm),33 μg/gm (ppm),30 μg/gm (ppm),5 μg/gm (ppm),34 μg/gm (ppm),–,10 μg/gm (ppm)
